{"source": "patent US20260199371A1", "about": "“COORDINATION COMPOUND, COMPOSITIONS, AND USES THEREOF FOR TREATING CANCERS” (HUEIYUAN BIOTECH LLC, priority 2023, published 2026)", "key": {"[1]": {"test_system": "LoVo-parental cells tumor xenograft", "experimental": "(§1) Six-week-old male NU/NU mice were purchased from Bio LASCO Taiwan Co., Ltd (Taipei, Taiwan) and randomly assigned into four groups (Groups 1 to 4), each containing three mice. […] Tumor volume and mice body weight were measured every three days. […] All mice were sacrificed on day 21, and the tumors were excised and weighed.\n(§2) Moreover, the LoVo-parental and LoVo-OXAR tumor tissues were collected and subject to TUNEL assay."}, "[2]": {"test_system": "LoVo-OXAR cells tumor xenograft", "experimental": "as §1, §2"}, "TT cells": {"test_system": "TT cells", "conditions": "0.1-1000 μg/ml, 72 hours", "experimental": "Human medullary thyroid carcinoma TT cells (commercially available from ATCC under the number CRL-1803) were cultured in F12K medium (Gibco™, Thermo Fisher Scientific, Waltham, MA, USA) supplemented with 10% FBS."}, "LoVo-OXAR cells": {"test_system": "LoVo-OXAR cells", "conditions": "2000 μg/ml, 24 hours, versus control", "experimental": "(§3) To evaluate whether the compound (II) induces apoptosis of cancer cells, terminal deoxynucleotidyl transferase dUTP nick-end labeling (TUNEL) assay was employed to detect apoptosis. In brief, LoVo-parental cells and LoVo-OXAR cells were treated with 500 μg/ml and 2000 μg/ml of the compound (II), respectively, for 24 hours before they were subject to TUNEL assay (In Situ Cell Death Detection Kit; Roche Applied Science, Indianapolis, IN, USA) and nuclear counterstain with 0.1 mg/ml 4′,6-diamidino-2-phenylindole (DAPI, Sigma-Aldrich, St. Louis, MO, USA). Lovo-parental or LoVo-OXAR cells treated with 0 μg/ml of the compound (II) were set as control groups. TUNEL-positive cells were examined by Olympus CKX53 microscope (Olympus, Shinjuku-ku, Tokyo, Japan)."}, "LoVo-parental cells [3]": {"test_system": "LoVo-parental cells", "conditions": "500 μg/ml, 24 hours, versus control", "experimental": "as §3"}, "CP70 cells": {"test_system": "CP70 cells", "conditions": "0-1600 μg/ml, 24 hours"}, "[4]": {"test_system": "gemcitabine-resistant CL1 cells (CL1-GEMR cells)", "conditions": "0-1600 μg/ml, 24 hours", "experimental": "(§4) BEAS-2B cells (95102433, Sigma-Aldrich) were cultured in LHC-9 medium (Gibco™, Thermo Fisher Scientific, Waltham, MA, USA)."}, "CL1-parental cells": {"test_system": "CL1-parental cells", "conditions": "0-1600 μg/ml, 24 hours", "experimental": "as §4"}, "BEAS-2B cells": {"test_system": "BEAS-2B cells", "conditions": "0-800 μg/ml, 24 hours", "experimental": "as §4"}, "HA22T-HDACiR cells": {"test_system": "HA22T-HDACiR cells", "conditions": "0-1250 μg/ml, 24 hours"}, "[5]": {"test_system": "ER stress markers in LoVo-parental cells", "conditions": "500 μg/ml, 24 hours", "experimental": "(§5) Western blot analysis was conducted using primary antibodies against protein kinase RNA-like endoplasmic reticulum kinase (PERK), phosphorylated PERK (p-PERK), alpha subunit of eukaryotic translation initiation factor 2 (eIF2α), phosphorylated eIF2α (p-eIF2α), activating transcription factor 4 (ATF4), proliferating cell nuclear antigen (PCNA), glyceraldehyde 3-phosphate dehydrogenase (GAPDH), and caspase 3 (San-ta Cruz Biotechnology Inc. Santa Cruz, California, USA). GAPDH was used as an internal control for the normalization of protein expression. […] Phosphorylated eIF2α has been known to inhibit the synthesis of various proteins participating in tumorigenesis."}, "[6]": {"test_system": "ER stress markers in LoVo-OXAR cells", "conditions": "2000 μg/ml, 24 hours", "experimental": "as §5"}, "MDA-MB231 cells": {"test_system": "MDA-MB231 cells", "conditions": "0-3000 μg/ml, 24 hours; effect more prominent than in T-47D", "experimental": "(§6) Human breast cancer cells T-47D (commercially available from ATCC under the number HTB-133) and MDA-MB231 (commercially available from ATCC under the number HTB-26) were cultured in RPMI 1640 medium supplemented with 10% FBS."}, "T-47D cells": {"test_system": "T-47D cells", "conditions": "0-3000 μg/ml, 24 hours", "experimental": "as §6"}, "HeLa cells": {"test_system": "HeLa cells", "conditions": "0.5-1000 μg/ml, 48 hours", "experimental": "Human cervical carcinoma HeLa cells (commercially available from ATCC under the number CCL-2) were cultured in DMEM supplemented with 10% FBS."}, "143B cells": {"test_system": "143B cells", "test": "MTT assay, viability of 143B cells", "type": "cell-based, human", "conditions": "24 hours", "experimental": "Human osteosarcoma 143B cells (commercially available from ATCC under the number CRL-8303) were cultured in DMEM supplemented with 10% FBS and 1% sodium pyruvate."}, "HA22T-parental cells": {"test_system": "HA22T-parental cells", "conditions": "24 hours"}, "SCC-25 cells": {"test_system": "SCC-25 cells", "conditions": "0-1400 μg/ml, 24 hours", "experimental": "Human oral squamous cell carcinoma (OSCC)SCC-25 cells (commercially available from ATCC under the number CRL-1628) were cultured in DMEM/F12 supplemented with 10% FBS."}, "LNCaP cells": {"test_system": "LNCaP cells", "conditions": "24 hours", "experimental": "Human prostate carcinoma LNCaP cells (commercially available from ATCC under the number CRL-1740) were cultured in RPMI-1640 medium (Gibco™, Thermo Fisher Scientific, Waltham, MA, USA) supplemented with 10% FBS."}, "LoVo-parental cells [7]": {"test_system": "LoVo-parental cells", "conditions": "24 hours"}}, "data": [{"smiles": "CC(=O)[O-].CC(=O)[O-].CC(=O)[O-].CC(=O)[O-].CC(=O)[O-].CC(=O)[O-].O.O.O.O.O=[N+]([O-])[O-].[Cr+3].[Fe+3].[Fe+3].[OH-].[OH-]", "note": "[compound (II)]", "values": [{"measurement": "apoptosis in tumors (TUNEL)", "setting": "[1]; LoVo-parental tumors", "result": "induced significantly higher apoptosis"}, {"measurement": "health of mice after treatment", "setting": "[1]; LoVo-parental xenograft, 100 mg/kg orally every three days", "result": "healthy"}, {"measurement": "tumor growth", "setting": "[1]; LoVo-parental xenograft, 100 mg/kg orally every three days, about three weeks", "result": "significantly reduced the tumor growth"}, {"measurement": "body weight of the mice", "setting": "[1]; LoVo-parental xenograft, day 1 to day 21", "result": "remained constant"}, {"measurement": "apoptosis in tumors (TUNEL)", "setting": "[2]; LoVo-OXAR tumors", "result": "induced significantly higher apoptosis"}, {"measurement": "health of mice after treatment", "setting": "[2]; LoVo-OXAR xenograft, 100 mg/kg orally every three days", "result": "healthy"}, {"measurement": "tumor growth", "setting": "[2]; LoVo-OXAR xenograft, 100 mg/kg orally every three days, about three weeks", "result": "significantly reduced the tumor growth"}, {"measurement": "body weight of the mice", "setting": "[2]; LoVo-OXAR xenograft, day 1 to day 21, loss attributed to the tumor", "result": "body weight loss"}, {"measurement": "viability of TT cells", "setting": "TT cells", "result": "reduced the viability of the TT cells in a dose-dependent manner"}, {"measurement": "apoptotic cell death (TUNEL) in LoVo-OXAR cells", "setting": "LoVo-OXAR cells", "result": "significant increase in apoptotic cell death"}, {"measurement": "apoptotic cell death (TUNEL) in LoVo-parental cells", "setting": "LoVo-parental cells [3]", "result": "significant increase in apoptotic cell death"}, {"measurement": "viability of CP70 cells", "setting": "CP70 cells", "result": "reduced the viability of the ovarian cancer cells in a dose-dependent manner"}, {"measurement": "viability of gemcitabine-resistant CL1 cells", "setting": "[4]", "result": "reduced the viability of both lung cancer cells in a dose-dependent manner"}, {"measurement": "viability of CL1-parental cells", "setting": "CL1-parental cells", "result": "reduced the viability of both lung cancer cells in a dose-dependent manner"}, {"measurement": "survival of non-tumorigenic BEAS-2B cells", "setting": "BEAS-2B cells", "result": "did not significantly inhibit the survival of BEAS-2B cells"}, {"measurement": "viability of HA22T-HDACiR cells", "setting": "HA22T-HDACiR cells", "result": "reduced the viability of both liver cancer cells in a dose-dependent manner"}, {"measurement": "caspase-3 cleavage", "setting": "[5]", "result": "activates caspase-3 cleavage"}, {"measurement": "expression of ER stress markers, including PERK, p-eIF2α, and ATF4", "setting": "[5]", "result": "enhancing the expression of ER stress markers"}, {"measurement": "eIF2α levels in LoVo-OXAR cells", "setting": "[6]; western blot", "result": "decreased"}, {"measurement": "phosphorylation of eIF2α in LoVo-OXAR cells", "setting": "[6]; western blot", "result": "increased"}, {"measurement": "caspase-3 cleavage", "setting": "[6]; LoVo-OXAR cells", "result": "activates caspase-3 cleavage"}, {"measurement": "expression of ER stress markers, including PERK, p-eIF2α, and ATF4", "setting": "[6]; LoVo-OXAR cells", "result": "enhancing the expression of ER stress markers"}, {"measurement": "viability of MDA-MB231 cells", "setting": "MDA-MB231 cells", "result": "reduced the viability of both breast cancer cells in a dose-dependent manner"}, {"measurement": "viability of T-47D cells", "setting": "T-47D cells", "result": "reduced the viability of both breast cancer cells in a dose-dependent manner"}, {"measurement": "viability of HeLa cells", "setting": "HeLa cells", "result": "reduced the viability of the metastatic Hela cells in a dose-dependent manner"}, {"measurement": "viability of 143B cells", "setting": "143B cells; 0-4000 μg/ml", "result": "reduced the viability of the osteosarcoma cells in a dose-dependent manner"}, {"measurement": "IC50 against 143B cells", "setting": "143B cells; MTT", "result": "approximately 500 μg/ml"}, {"measurement": "viability of HA22T-parental cells", "setting": "HA22T-parental cells; 0-1250 μg/ml", "result": "reduced the viability of both liver cancer cells in a dose-dependent manner"}, {"measurement": "IC50 against HA22T-parental cells", "setting": "HA22T-parental cells; MTT", "result": "approximately 1000 μg/ml"}, {"measurement": "viability of SCC-25 cells", "setting": "SCC-25 cells", "result": "reduced the viability of the OSCC cells in a dose-dependent manner"}, {"measurement": "viability of LNCaP cells", "setting": "LNCaP cells; 0-1600 μg/ml", "result": "reduced the viability of the prostate cancer cells in a dose-dependent manner"}, {"measurement": "IC50 against LNCaP cells", "setting": "LNCaP cells; MTT", "result": "approximately 1033 μg/ml"}, {"measurement": "viability of LoVo-parental cells", "setting": "LoVo-parental cells [7]; 0-4000 μg/ml", "result": "reduced the viability of both colorectal cancer cells in a dose-dependent manner"}, {"measurement": "IC50 against LoVo-parental cells", "setting": "LoVo-parental cells [7]; MTT", "result": "about 500 μg/ml"}]}]}
